Laboratory results reported in ChEMBL document CHEMBL1127212, “Preparation and evaluation of the antiaggregating and vasodilating activities of the novel 3-nitro-4(3H)-quinazolinone derivatives” (Bioorg Med Chem Lett, 1993).

Columns and labels:
Format in all cases: functional
Oryctolagus cuniculus [1] = organism: Oryctolagus cuniculus; assay: Tested for inhibition of aggregation induced by Collagen in rabbit platelet rich plasma in vitro at the dose of 10 ug/ml
Oryctolagus cuniculus [2] = organism: Oryctolagus cuniculus; assay: Tested for inhibition of aggregation induced by arachidonic acid in rabbit platelet rich plasma in Vitro at the dose of 125 uM
Oryctolagus cuniculus [3] = organism: Oryctolagus cuniculus; assay: Tested for vasodilating activity using a transverse strip preparation of rabbit thoracic aorta
Oryctolagus cuniculus [4] = organism: Oryctolagus cuniculus; assay: Tested for inhibition of aggregation induced by adenosine diphosphate (ADP) in rabbit platelet rich plasma in vitro at the dose of […]
Oryctolagus cuniculus [5] = organism: Oryctolagus cuniculus; assay: Tested in vitro for inhibition of aggregation induced by Collagen in rabbit platelet rich plasma at the dose of 10 ug/ml
Oryctolagus cuniculus [6] = organism: Oryctolagus cuniculus; assay: Tested in vitro for inhibition of aggregation induced by adenosine diphosphate (ADP) in rabbit platelet rich plasma at the dose of […]
Oryctolagus cuniculus [7] = organism: Oryctolagus cuniculus; assay: Tested in vitro for inhibition of aggregation induced by arachidonic acid in rabbit platelet rich plasma at the dose of 125 uM

CC(=O)OC1N([N+](=O)[O-])C(=O)c2ccccc2N1[N+](=O)[O-] (stereo unspecified) gave an IC50 (Oryctolagus cuniculus [1]) of 52 µM, an IC50 (Oryctolagus cuniculus [2]) of 50 µM and a pD2 (Oryctolagus cuniculus [3]) of 5.36. For the same molecule, the IC50 (Oryctolagus cuniculus [4]) was 48 µM.

Work on “SODIUM NITROPRUSSIDE [listing 1 of 2 here]” yielded an IC50 (Oryctolagus cuniculus [5]) of less than 1000 µM and an IC50 (Oryctolagus cuniculus [6]) of 95 µM.

For “SODIUM NITROPRUSSIDE [listing 2 of 2 here]”, the pD2 (Oryctolagus cuniculus [3]) was 4.08.

For CC(=O)OC1N([N+](=O)[O-])C(=O)c2cc(Cl)ccc2N1[N+](=O)[O-] (stereo unspecified), the IC50 (Oryctolagus cuniculus [7]) was 40 µM, the IC50 (Oryctolagus cuniculus [5]; Oryctolagus cuniculus, Plasma) was 52 µM and the IC50 (Oryctolagus cuniculus [6]; Oryctolagus cuniculus, Plasma) was 46 µM. It also gave a pD2 (Oryctolagus cuniculus [3]) of 5.4.
